The results in this text go back to US10092537B2, “Use for PAI-1 inhibitor” (RENASCIENCE CO., LTD., priority 2013, dated 2018).

Structures can show the parent of a compound that is named as a salt.

The target in this assay is human PAI-1 (Homo sapiens, UniProt P05121). Nature of the assay: Measurement of PAI-1 inhibitory activity of compound group 1 (t-PA, Spectrozyme t-PA chromogenic substrate). The conditions noted are these: read-out: PAI-1 activity %.
human PAI-1, sequence (P05121 24-402): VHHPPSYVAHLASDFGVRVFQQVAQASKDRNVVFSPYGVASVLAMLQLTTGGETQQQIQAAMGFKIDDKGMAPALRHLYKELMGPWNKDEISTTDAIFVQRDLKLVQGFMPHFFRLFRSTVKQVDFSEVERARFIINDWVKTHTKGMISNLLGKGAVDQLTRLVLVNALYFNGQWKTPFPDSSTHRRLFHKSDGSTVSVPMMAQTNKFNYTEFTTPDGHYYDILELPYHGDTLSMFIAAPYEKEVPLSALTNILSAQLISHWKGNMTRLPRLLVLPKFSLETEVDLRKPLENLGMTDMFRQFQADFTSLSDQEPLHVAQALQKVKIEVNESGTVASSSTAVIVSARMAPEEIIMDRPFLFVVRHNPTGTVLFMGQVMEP
Regarding `O=C(Cn1ccc2cc(Br)ccc21)Nc1ccc(Cl)cc1C(=O)O` [Example 24, 2-{[(5-bromo-1H-indol-1-yl)acetyl]amino}-5-chlorobenzoic acid], the activity at 2.5 µM is 102% and the activity at 10 µM worked out at 19.1%.
Take `O=C(Nc1ccc(Cl)cc1C(=O)O)c1ccc(C(O)C23CC4CC(CC(C4)C2)C3)cc1` (stereo not shown) [Example 97, 2-[({4-[adamantan-1-yl(hydroxy)methyl]phenyl}carbonyl)amino]-5-chlorobenzoic acid]: the activity at 2.5 µM is 89.9% and the activity at 10 µM turned out to be 0.7%.
In the case of `O=C(Nc1ccc(Cl)cc1C(=O)O)c1ccc(-c2ccc(F)cc2)s1` [Example 104, 5-chloro-2-({[5-(4-fluorophenyl)thiophen-2-yl]carbonyl}amino)benzoic acid], the activity at 2.5 µM was found to be 84.8% and the activity at 10 µM came out at 0.9%.
As for `O=C(Nc1ccc(Cl)cc1C(=O)O)c1cc(C(F)(F)F)cc(C(F)(F)F)c1` [Example 43, 2-({[3,5-bis(trifluoro-methyl)phenyl)carbonyl}amino)-5-chlorobenzoic acid], the activity at 2.5 µM amounted to 98.4% and the activity at 10 µM came to 14.1%.
Turning to `O=C(Nc1ccc(Cl)cc1C(=O)O)c1ccc(N2CCCC2)cc1` [Example 83, 5-chloro-2-({[4-(pyrrolidin-1-yl)phenyl]carbonyl}amino)benzoic acid hydrochloride], the activity at 2.5 µM is 99.1% and the activity at 10 µM stood at 26.6%.
Turning to `CC(C)(Oc1cccc(-c2ccoc2)c1)C(=O)Nc1ccc(Cl)cc1C(=O)O` [Example 44, 5-chloro-2-({2-[3-(furan-3-yl)phenoxy]-2-methylpropanoyl}amino)benzoic acid], the activity at 2.5 µM came out at 97.8% and the activity at 10 µM stood at 20.4%.
For the compound `O=C(Nc1ccc(-c2ccccc2)cc1)Nc1ccc(Cl)cc1C(=O)O` [Example 71, 2-[(biphenyl-4-ylcarbamoyl)amino]-5-chlorobenzoic acid], the activity at 2.5 µM came to 39.6% and the activity at 10 µM was 2.1%.
Taken in the same sequence, the figures for `O=C(O)c1cc(Cl)ccc1NC(=O)C1CCCC2(CCCCC2)C1` (stereo not shown) [Example 85, 5-chloro-2-[(spiro[5.5]undec-2-ylcarbonyl)amino]benzoic acid] were 97.5% and 11%.
`CC(C)(C(=O)Nc1ccc(Cl)cc1C(=O)O)c1cccc(-c2ccoc2)c1` [Example 37, 5-chloro-2-({2-[3-(furan-3-yl)phenyl]-2-methylpropanoyl}amino)benzoic acid]: the activity at 2.5 µM came to 53.1% and the activity at 10 µM stood at 5.9%.
In the case of `O=C(O)c1cc(Cl)ccc1NC(=O)C1CCCN(C(=O)c2cccc(-c3ccccc3)c2)C1` (stereo not shown) [Example 31, 2-({[1-(biphenyl-3-ylcarbonyl)piperidin-3-yl]carbonyl}amino)-5-chlorobenzoic acid], the activity at 2.5 µM was found to be 88% and the activity at 10 µM turned out to be 20.2%.
Regarding `Cn1c(C(=O)Nc2ccc(Cl)cc2C(=O)O)cc2cc(-c3ccccc3)ccc21` [Example 48, 5-chloro-2-{[(1-methyl-5-phenyl-1H-indol-2-yl)carbonyl]amino}benzoic acid], the activity at 2.5 µM came out at 2.5% and the activity at 10 µM came to 1.7%.
Turning to `O=C(COc1ccc(C23CC4CC(CC(C4)C2)C3)cc1)Nc1ccc(-c2ccoc2)cc1C(=O)O` [Example 47, 2-({[4-(adamantan-1-yl)phenoxy]acetyl}amino)-5-(furan-3-yl)benzoic acid], the activity at 2.5 µM came out at 9.7% and the activity at 10 µM came to 0.6%.
For `O=C(COc1ccc(C23CC4CC(CC(C4)C2)C3)cc1)Nc1ccc(Cl)cc1C(=O)O` [Example 21, 2-({[4-(adamantan-1-yl)phenoxy]acetyl}amino)-5-chlorobenzoic acid], the activity at 2.5 µM worked out at 10% and the activity at 10 µM stood at 0.3%.
`O=C(Nc1ccc(Cl)cc1C(=O)O)c1cccc(C2CCCCC2)c1` [Example 80, 5-chloro-2-{[(3-cyclohexylphenyl)carbonyl]amino}benzoic acid]: the activity at 2.5 µM came out at 45.5% and the activity at 10 µM amounted to 0%.
Take `O=C(CCCOc1ccc(C23CC4CC(CC(C4)C2)C3)cc1)Nc1ccc(Cl)cc1C(=O)O` [Example 55, 2-({4-[4-(adamantan-1-yl)phenoxy]butanoyl}amino)-5-chlorobenzoic acid]: the activity at 2.5 µM was 29.8% and the activity at 10 µM came to 1.1%.
In the case of `O=C(Nc1ccc(Cl)cc1C(=O)O)c1ccc(C2CCCCC2)cc1` [Example 69, 5-chloro-2-{[(4-cyclohexylphenyl)carbonyl]amino}benzoic acid], the activity at 2.5 µM amounted to 44.7% and the activity at 10 µM stood at 0.6%.
In the case of `O=C(CCOc1ccc(C23CC4CC(CC(C4)C2)C3)cc1)Nc1ccc(Cl)cc1C(=O)O` [Example 59, 2-({3-[4-(adamantan-1-yl)phenoxy]propanoyl}amino)-5-chlorobenzoic acid], the activity at 2.5 µM stood at 56.3% and the activity at 10 µM was determined as 1.4%.
With `O=C(Nc1ccc(C23CC4CC(CC(C4)C2)C3)cc1)C(=O)Nc1ccc(Cl)cc1C(=O)O` [Example 106, sodium 2-[({[4-(adamantan-1-yl)phenyl]amino}(oxo)acetyl)amino]-5-chlorobenzoate], the activity at 2.5 µM is 88.4% and the activity at 10 µM is 26.3%.
Turning to `O=C(C#Cc1ccc(C23CC4CC(CC(C4)C2)C3)cc1)Nc1ccc(Cl)cc1C(=O)O` [Example 94, 2-({3-[4-(adamantan-1-yl)phenyl]prop-2-ynoyl}amino)-5-chlorobenzoic acid], the activity at 2.5 µM came out at 3.5% and the activity at 10 µM is 7.4%.
For the compound `O=C(COc1ccc(-c2ccccc2)cc1)Nc1ccc(Cl)cc1C(=O)O` [Example 19, 2-{[(biphenyl-4-yloxy)acetyl]amino}-5-chlorobenzoic acid], the activity at 2.5 µM worked out at 72.4% and the activity at 10 µM was found to be 2.5%.
In the case of `Cn1c(C(=O)Nc2ccc(Cl)cc2C(=O)O)cc2cc(Br)ccc21` [Example 23, 2-{[(5-bromo-1-methyl-1H-indol-2-yl)carbonyl]amino}-5-chlorobenzoic acid], the activity at 2.5 µM worked out at 97.3% and the activity at 10 µM turned out to be 1.8%.
For `Cc1ccc(C23CC4CC(CC(C(=O)Nc5ccc(Cl)cc5C(=O)O)(C4)C2)C3)cc1` [Example 86, 5-chloro-2-({[3-(4-methylphenyl)adamantan-1-yl]carbonyl}amino)benzoic acid], the activity at 2.5 µM was 63.5% and the activity at 10 µM came to 1.4%.
With `O=C(COc1ccccc1C1CCCCC1)Nc1ccc(Cl)cc1C(=O)O` [Example 17, 5-chloro-2-{[(2-cyclohexylphenoxy)acetyl]amino}benzoic acid], the activity at 2.5 µM came out at 52.8% and the activity at 10 µM came out at 0.8%.
With `O=C(Nc1ccc(Cl)cc1C(=O)O)c1cccc(C23CC4CC(CC(C4)C2)C3)c1` [Example 62, 2-({[3-(adamantan-1-yl)phenyl]carbonyl}amino)-5-chlorobenzoic acid], the activity at 2.5 µM amounted to 29.1% and the activity at 10 µM was 0.6%.
Regarding `O=C(Nc1ccc(Cl)cc1C(=O)O)c1cccc(-c2cccc3ccccc23)c1` [Example 58, 5-chloro-2-({[3-(naphthalen-1-yl)phenyl]carbonyl}amino)benzoic acid], the activity at 2.5 µM was determined as 0% and the activity at 10 µM turned out to be 0%.
`COc1ccccc1-c1cccc(C(=O)Nc2ccc(Cl)cc2C(=O)O)c1` [Example 33, 5-chloro-2-{[(2′-methoxybiphenyl-3-yl)carbonyl]amino}benzoic acid]: the activity at 2.5 µM worked out at 92.8% and the activity at 10 µM came out at 21.6%.
As for `Cc1sc(NC(=O)c2ccc(C3CCCCC3)cc2)c(C(=O)O)c1-c1ccccc1` [Example 74, 2-{[(4-cyclohexylphenyl)carbonyl]amino}-5-methyl-4-phenylthiophene-3-carboxylic acid], the activity at 2.5 µM amounted to 8.6% and the activity at 10 µM came to 0.2%.
Take `O=C(O)c1cc(Cl)ccc1NC(=O)c1cc2cc(-c3ccccc3)ccc2n1CCCO` [Example 60, 5-chloro-2-({[1-(3-hydroxypropyl)-5-phenyl-1H-indol-2-yl]carbonyl}amino)benzoic acid]: the activity at 2.5 µM was 25% and the activity at 10 µM was found to be 0.9%.
Take `O=C(CC(c1ccccc1)c1ccccc1)Nc1ccc(Cl)cc1C(=O)O` [Example 41, 5-chloro-2-[(3,3-diphenylpropanoyl)amino]benzoic acid]: the activity at 2.5 µM is 72.4% and the activity at 10 µM stood at 12.9%.
On to `Cc1ccc(-c2ccc(F)cc2)cc1NCC(=O)Nc1ccc(Cl)cc1C(=O)O` [Example 72, 5-chloro-2-{[N-(4′-fluoro-4-methylbiphenyl-3-yl)glycyl]amino}benzoic acid], for which the activity at 2.5 µM is 31.1% and the activity at 10 µM was 3.6%.
The corresponding values for `O=C(Nc1ccc(Cl)cc1C(=O)O)c1ccc(Oc2ccccc2)cc1` [Example 42, 5-chloro-2-{[(4-phenoxyphenyl)carbonyl]amino}benzoic acid] are 98.6% and 3.8%.
Regarding `O=C(Nc1ccc(Cl)cc1C(=O)O)c1cccc(OCc2ccc3ccccc3n2)c1` [Example 99, sodium 5-chloro-2-({[3-(quinolin-2-ylmethoxy)phenyl]carbonyl}amino)benzoate], the activity at 2.5 µM was found to be 87.8% and the activity at 10 µM amounted to 0.3%.
As to `O=C(/C=C/c1ccc(-c2ccccc2)cc1)Nc1ccc(Cl)cc1C(=O)O` [Example 78, 2-{[(2E)-3-(biphenyl-4-yl)prop-2-enoyl]amino}-5-chlorobenzoic acid], the activity at 2.5 µM is 25.3% and the activity at 10 µM is 0.3%.
In the case of `O=C(COc1cccc(C2=CCCCC2)c1)Nc1ccc(Cl)cc1C(=O)O` [Example 25, 5-chloro-2-({[3-(cyclohex-1-en-1-yl)phenoxy]acetyl}amino)benzoic acid], the activity at 2.5 µM is 85.8% and the activity at 10 µM amounted to 0%.
Taken in the same sequence, the figures for `O=C(Nc1ccc(Cl)cc1C(=O)O)c1ccc(-c2ccccc2)o1` [Example 105, 5-chloro-2-{[(5-phenylfuran-2-yl)carbonyl]amino}benzoic acid] were 89.9% and 23.5%.
